The subject of one assay is U937 cells. Description: Cellular assay in U937 cells: activity of RIPK1 inhibitors on TNFα/zVAD.fmk-induced cell death (necroptosis), CellTiter 96 AQueous (MTS) readout. Type of assay: cell-based. The conditions noted are these: Homo sapiens, U-937. Put shortly: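 Necroptosis was measured by viable-cell MTS reduction (4 h, absorbance 490 nm) after overnight (18–24 h) 37° C culture. Cell suspensions of U937 cells carried TNFα (100 ng/ml) plus zVAD.fmk (50 μM) before compound was added. A 10-point curve (10 μM–0.26 nM or 1 μM–0.07 nM) was run in duplicate, normalised to the control lacking TNFα/zVAD.fmk.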

Assay [1] deals with T1, hRIPK1 (aa 1-375) fusion protein (Homo sapiens, UniProt Q13546).
T1 construct: hRIPK1 (aa 1-375) fusion protein
T1 sequence (Q13546 1-375): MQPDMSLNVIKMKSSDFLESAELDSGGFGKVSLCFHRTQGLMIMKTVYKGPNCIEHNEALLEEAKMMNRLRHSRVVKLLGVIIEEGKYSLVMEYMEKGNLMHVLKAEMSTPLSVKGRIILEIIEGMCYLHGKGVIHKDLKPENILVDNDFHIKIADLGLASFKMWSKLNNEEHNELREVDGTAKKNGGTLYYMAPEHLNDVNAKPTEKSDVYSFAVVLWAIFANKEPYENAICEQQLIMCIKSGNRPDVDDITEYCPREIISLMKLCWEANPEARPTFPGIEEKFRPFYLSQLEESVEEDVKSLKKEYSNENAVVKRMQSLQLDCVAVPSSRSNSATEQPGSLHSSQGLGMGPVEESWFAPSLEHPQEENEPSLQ
Briefly: ADP-Glo kinase assay: catalytic activity of RIPK1 (autophosphorylation, conversion of ATP to ADP). Type of assay: biochemical. Put shortly: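 hRIPK1 (aa 1-375) fusion protein (3.6 μg/ml final) was preincubated 30 min at rt with compound (33300-1.69 nM, 1% DMSO), then 50 μM ATP was added for 240 min at rt. ADP from autophosphorylation was measured by ADP-Glo luminescence and curves fitted by nonlinear regression.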

With `Cc1cc(C[C@H]2CC[C@H](C(=O)N3OCC[C@H]3c3cc(F)cc(C#N)c3)CC2)cn2c(C)nnc12` [compound 300, trans-3-[(3S)-2-[4-[(3,8-dimethyl-[1,2,4]triazolo[4,3-a]pyridin-6-yl)methyl]cyclohexanecarbonyl]-1,2-oxazolidin-3-yl]-5-fluorobenzonitrile], the IC50 is 13 nM with U937 cells and 19 nM in assay [1].

Consider `Cc1nc2c(F)cc(C[C@H]3CC[C@H](C(=O)N4OCC[C@H]4c4cc(F)cc(C#N)c4)CC3)cn2n1` [compound 284, trans-3-fluoro-5-[(3S)-2-[4-[(8-fluoro-2-methyl-[1,2,4]triazolo[1,5-a]pyridin-6-yl)methyl]cyclohexanecarbonyl]isoxazolidin-3-yl]benzonitrile], for which the figures for the IC50 (in the assay with U937 cells; in assay [1]) were 34 nM and 17 nM, respectively.

On to `NC(=O)c1cc2c(cc1F)ncn2C[C@H]1CC[C@H](C(=O)N2OCC[C@H]2c2cc(F)cc(F)c2)CC1` [compound 71, trans-1-((4-((S)-3-(3,5-difluorophenyl)isoxazolidine-2-carbonyl)cyclohexyl)methyl)-5-fluoro-1H-benzo[d]imidazole-6-carboxamide], for which the IC50 in the assay on U937 cells stood at 93 nM; in assay [1], 37 nM.

With `N#Cc1ccc2c(cnn2C[C@H]2CC[C@H](C(=O)N3OCC[C@H]3c3cc(F)cc(F)c3)CC2)c1` [compound 52, trans-1-((4-((S)-3-(3,5-difluorophenyl)isoxazolidine-2-carbonyl)cyclohexyl)methyl)-1H-indazole-5-carbonitrile], the IC50 in the assay with U937 cells is 2 nM; in assay [1], 15 nM.

In the case of `N#Cc1cc(F)cc([C@@H]2CCON2C(=O)[C@H]2CC[C@H](Cn3cnc4cc(F)c(C#N)cc43)CC2)c1` [compound 13, trans-1-((4-((S)-3-(3-cyano-5-fluorophenyl)isoxazolidine-2-carbonyl)cyclohexyl)methyl)-5-fluoro-1H-benzo[d]imidazole-6-carbonitrile], the IC50 with U937 cells came to 5 nM; in assay [1] it was 33 nM.

On to `N#Cc1cncc([C@@H]2CCON2C(=O)[C@H]2CC[C@H](Cc3ccc(F)c(C(N)=O)c3)CC2)c1` [compound 194, trans-5-[[4-[(3S)-3-(5-cyano-3-pyridyl)isoxazolidine-2-carbonyl]cyclohexyl]methyl]-2-fluoro-benzamide], for which the results for the IC50 (in the assay with U937 cells; in assay [1]) were 10 nM and 21 nM, respectively.

As for `N#Cc1cc2c(cc1F)ncn2C[C@H]1CC[C@H](C(=O)N2OCC[C@H]2c2cnccn2)CC1` [compound 98, trans-5-fluoro-1-((4-((S)-3-(pyrazin-2-yl)isoxazolidine-2-carbonyl)cyclohexyl)methyl)-1H-benzo[d]imidazole-6-carbonitrile], the 50% inhibitory concentration (IC50) in the assay with U937 cells amounted to 84 nM; in assay [1], 32 nM.

As to `N#Cc1cncc([C@@H]2CCON2C(=O)[C@H]2CC[C@H](Cn3cc(C#N)ccc3=O)CC2)c1` [compound 122, trans-1-[[4-[(3S)-3-(5-cyano-3-pyridyl)isoxazolidine-2-carbonyl]cyclohexyl]methyl]-6-oxo-pyridine-3-carbonitrile], the IC50 was determined as 797 nM with U937 cells and 125 nM in assay [1].

`N#Cc1cc(F)cc([C@@H]2CCON2C(=O)[C@H]2CC[C@H](Cn3ncc4cc(C#N)ccc43)CC2)c1` [compound 53, trans-1-((4-((S)-3-(3-cyano-5-fluorophenyl)isoxazolidine-2-carbonyl)cyclohexyl)methyl)-1H-indazole-5-carbonitrile]: the IC50 amounted to 4 nM in the assay with U937 cells and 17 nM in assay [1].

As for `Cc1cc(C)n(C[C@H]2CC[C@H](C(=O)N3OCC[C@H]3c3cc(F)cc(F)c3)CC2)n1` [compound 118, trans-((S)-3-(3,5-difluorophenyl)isoxazolidin-2-yl)(4-((3,5-dimethyl-1H-pyrazol-1-yl)methyl)cyclohexyl)methanone], the IC50 with U937 cells stood at 30 nM; in assay [1] it was 23 nM.

For the molecule `CC1(Oc2cnc3ccn(C[C@H]4CC[C@H](C(=O)N5OCC[C@H]5c5cc(F)cc(C#N)c5)CC4)c3c2)CC1` [compound 184, trans-3-fluoro-5-[(3S)-2-[4-[[6-(1-methylcyclopropoxy)pyrrolo[3,2-b]pyridin-1-yl]methyl]cyclohexanecarbonyl]isoxazolidin-3-yl]benzonitrile], the IC50 was 19 nM with U937 cells and 26 nM in assay [1].

Consider `COc1cncc([C@@H]2CCON2C(=O)[C@H]2CC[C@H](Cn3ccc4ncc(C#N)cc43)CC2)n1` [compound 185, trans-1-[[4-[(3S)-3-(6-methoxypyrazin-2-yl)isoxazolidine-2-carbonyl]cyclohexyl]methyl]pyrrolo[3,2-b]pyridine-6-carbonitrile], for which the IC50 was determined as 34 nM in the assay with U937 cells and 32 nM in assay [1].

Regarding `Cc1nc2c(F)cc(C[C@H]3CC[C@H](C(=O)N4OCC[C@H]4c4cnc(C)c(F)c4)CC3)cn2n1` [compound 327, trans-[(3S)-3-(5-fluoro-6-methyl-3-pyridyl)isoxazolidin-2-yl]-[4-[(8-fluoro-2-methyl-[1,2,4]triazolo[1,5-a]pyridin-6-yl)methyl]cyclohexyl]methanone], the IC50 (with U937 cells; in assay [1]) was 48 nM throughout.

Turning to `N#Cc1cc(F)cc([C@@H]2CCON2C(=O)[C@H]2CC[C@H](Cn3ccc4ncc(OCCO)cc43)CC2)c1` [compound 153, trans-3-fluoro-5-[(3S)-2-[4-[[6-(2-hydroxyethoxy)pyrrolo[3,2-b]pyridin-1-yl]methyl]cyclohexanecarbonyl]isoxazolidin-3-yl]benzonitrile], the IC50 in the assay with U937 cells was 3 nM; in assay [1], 6 nM.

As to `N#Cc1cc(F)cc([C@@H]2CCON2C(=O)[C@H]2CC[C@H](Cn3cnc4cc(C#N)c(F)cc43)CC2)c1` [compound 11, trans-1-((4-((S)-3-(3-cyano-5-fluorophenyl)isoxazolidine-2-carbonyl)cyclohexyl)methyl)-6-fluoro-1H-benzo[d]imidazole-5-carbonitrile], the results for the IC50 (in the assay with U937 cells; in assay [1]) were 38 nM and 59 nM, respectively.

For `Cc1c(C#N)cncc1C[C@H]1CC[C@H](C(=O)N2OCC[C@H]2c2cc(F)cc(F)c2)CC1` [compound 275, trans-5-[[4-[(3S)-3-(3,5-difluorophenyl)isoxazolidine-2-carbonyl]cyclohexyl]methyl]-4-methyl-pyridine-3-carbonitrile], the results for the IC50 (in the assay on U937 cells; in assay [1]) were 9 nM and 8 nM, respectively.

On to `Cc1nc2c(C)cc(C[C@H]3CC[C@H](C(=O)N4OCC[C@H]4c4cnccn4)CC3)cn2n1` [compound 326, trans-[4-[(2,8-dimethyl-[1,2,4]triazolo[1,5-a]pyridin-6-yl)methyl]cyclohexyl]-[(3S)-3-pyrazin-2-ylisoxazolidin-2-yl]methanone], for which the IC50 in the assay on U937 cells worked out at 59 nM; in assay [1], 51 nM.

As to `Cc1nn(C[C@H]2CC[C@H](C(=O)N3OCC[C@H]3c3cc(F)cc(F)c3)CC2)c2cc(C#N)cc(F)c12` [compound 101, trans-1-((4-((S)-3-(3,5-difluorophenyl)isoxazolidine-2-carbonyl)cyclohexyl)methyl)-4-fluoro-3-methyl-1H-indazole-6-carbonitrile], the IC50 with U937 cells came out at 4 nM; in assay [1], 18 nM.

As for `N#Cc1cc(F)cc([C@@H]2CCON2C(=O)[C@H]2CC[C@H](Cn3ccc4cc(F)c(C#N)cc43)CC2)c1` [compound 22, trans-1-((4-((S)-3-(3-cyano-5-fluorophenyl)isoxazolidine-2-carbonyl)cyclohexyl)methyl)-5-fluoro-1H-indole-6-carbonitrile], the IC50 stood at 2 nM with U937 cells and 20 nM in assay [1].

For `N#Cc1cc(F)cc([C@@H]2CCON2C(=O)[C@H]2CC[C@H](Cn3ccc4ncc(Cl)cc43)CC2)c1` [compound 19, trans-3-((S)-2-(4-((6-chloro-1H-pyrrolo[3,2-b]pyridin-1-yl)methyl)cyclohexane-1-carbonyl)isoxazolidin-3-yl)-5-fluorobenzonitrile], the IC50 was 5 nM in the assay on U937 cells and 28 nM in assay [1].

For the molecule `N#Cc1ccc2cnn(C[C@H]3CC[C@H](C(=O)N4OCC[C@H]4c4cnccn4)CC3)c2c1` [compound 200, trans-1-[[4-[(3S)-3-pyrazin-2-ylisoxazolidine-2-carbonyl]cyclohexyl]methyl]indazole-6-carbonitrile], the IC50 with U937 cells is 4 nM; in assay [1], 29 nM.

Regarding `Cc1ncc(F)cc1C[C@H]1CC[C@H](C(=O)N2OCC[C@H]2c2cc(F)cc(C#N)c2)CC1` [compound 181, trans-3-fluoro-5-[(3S)-2-[4-[(5-fluoro-2-methyl-3-pyridyl)methyl]cyclohexanecarbonyl]isoxazolidin-3-yl]benzonitrile], the IC50 in the assay on U937 cells came to 2 nM; in assay [1], 26 nM.

For `Cc1nc([C@@H]2CCON2C(=O)[C@H]2CC[C@H](Cn3ncc4cc(C#N)ccc43)CC2)cs1` [compound 202, trans-1-[[4-[(3S)-3-(2-methylthiazol-4-yl)isoxazolidine-2-carbonyl]cyclohexyl]methyl]indazole-5-carbonitrile], the IC50 in the assay on U937 cells came out at 39 nM; in assay [1] it was 19 nM.

The values above are taken from patent US20260158009A1 (GENZYME CORPORATION, priority 2023, published 2026).
